The values that follow come from patent US7605154B2, “Substituted Thiazolo [4,5-d]pyrimidines as protein kinase inhibitors” (Janssen Pharmaceutica N.V., priority 2005, dated 2009).

Format in all cases: biochemical
Experiment [1] concerns the target T1, Lyn kinase (Homo sapiens, UniProt P07948).
T1 construct: purchased Upstate biotechnology, Lake Placid, N.Y
Kind of experiment: Lyn Kinase Assay. The note with it: test concentration of 1 μM. On the procedure: A mixture of a 10× kinase buffer (500 mM MOPS at pH 7.5, 1 mM EGTA, 1 mM Sodium Vanadate, 1% β-mercaptoethanol and 100 mM Magnesium Acetate), ATP (5 μM final from a 10 mM stock), polyGluTyr (0.1 mg/mL final from a 1 mg/mL stock), γ-^33P ATP (10 μCi/μL stock) and water (20 μL/well) was added to each well of a Streptavidin Flashplate.
Test compound in 100% DMSO (0.5 μL) was added to the appropriate wells. Diluted Lyn kinase (human) (Upstate biotechnology, Lake Placid, N.Y) (diluted in a buffer consisting of 50 mM Tris at pH 7.5, 0.1 mM EGTA, Sodium Vanadate (0.1 mM), β-mercaptoethanol (0.1%) and 1 mg/mL bovine serum albumin) (2.5 μL) was added to the wells to initiate the reactions.
The reaction plates were incubated at 30° C. for 40 min. The reaction was terminated by the addition of a 3% phosphoric acid solution (5 μL). The reaction product (10 μL) was spotted onto a P30 filtermat and washed for 5 minutes in phosphoric acid (75 mM). The wash sequence was repeated two more times, followed with one final wash in methanol. The plates were then dried, sealed and read on the TopCount scintillation counter after adding 30 μL scintillation fluid.
Percent inhibition was derived according to the procedure described in Example 5. The results for those compounds tested are shown in Table 3 at a test concentration of 1 μM.

In experiment [2] the target is T2, EGFR (Homo sapiens, UniProt P00533).
T2 construct: started at nucleotide 2189 (corresponding to amino acid 667) and ended at the termination codon; made in house; host or cells: Sf9 insect cells (baculovirus)
The experiment in a line: EGFR Kinase Assay. The note with it: GST-EGFR, 5 μM ATP. The method in brief: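 Baculovirus/Sf9-expressed GST-EGFR with biotinylated polyGluTyr substrate, 5 μM ATP plus γ-33P-ATP, in 50 mM Tris pH 8.0, 10 mM MgCl2, 0.1 mM vanadate, 1 mM DTT; 1 h at 30 °C.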

Experiment [3] concerns the target T3, c-Src kinase (Homo sapiens, UniProt P12931).
T3 construct: purchased Upstate Biotechnology, Lake Placid, N.Y
Kind of experiment: c-Src Kinase Assay. As to conditions: test concentration of 1 μM. On the procedure: A mixure of a 10× kinase buffer (80 mM MOPS at pH 7.0, 2 mM EDTA and 100 mM Magnesium Chloride), ATP (5 μM final from a 10 mM stock), a Cdc2 peptide […] (100 μM final from a 2.5 mM stock), γ-^33P ATP (10 μCi/μL stock) and water (20 μL/well) was added to each well of a Streptavidin Flashplate.
Test compound in 100% DMSO (0.5 μL) was added to the appropriate wells. Diluted c-Src kinase (human) (Upstate Biotechnology, Lake Placid, N.Y.) (diluted in a buffer consisting of 20 mM MOPS at pH 7.0, 1 mM EDTA, β-mercaptoethanol (0.1%), Brij-35 (0.01%), glycerol (5%), and 1 mg/mL bovine serum albumin) (2.5 μL) was added to the wells to initiate the reactions. The reaction plates were incubated at 30° C. for 40 min. The reaction was terminated by the addition of a 3% phosphoric acid solution (5 μL). The reaction product (10 μL) was spotted onto a P30 filtermat and washed for 5 minutes in phosphoric acid (75 mM). The wash sequence was repeated two more times, followed with one final wash in methanol. The plates were then dried, sealed and read on the TopCount scintillation counter after adding 30 μL scintillation fluid.
Percent inhibition was derived according to the procedure described in Example 5. The results for those compounds tested are shown in Table 2 at a test concentration of 1 μM.

In experiment [4] the target is T4, c-Abl kinase (Homo sapiens, UniProt P00519).
T4 construct: purchased Upstate Biotechnology, Lake Placid, N.Y
Kind of experiment: c-Abl Kinase Assay. The note with it: test concentration of 1 μM; read-out: c-Abl percent inhibition. On the procedure:
A mixture of a 10× kinase buffer (80 mM MOPS at pH 7.0, 2 mM EDTA and 100 mM Magnesium Acetate), ATP (5 μM final from a 10 mM stock), a peptide […] (50 μM final from a 0.5 mM stock), γ-^33P ATP (10 μCi/μL stock) and water is added to each well (20 μl/well) of a Streptavidin Flashplate.
Test compound in 100% DMSO (0.5 μL) is added to the appropriate wells. Diluted c-Abl kinase (human) (Upstate Biotechnology, Lake Placid, N.Y.) (diluted in a buffer consisting of 20 mM MOPS at pH 7.0, 1 mM EDTA, β-mercaptoethanol (0.1%), Brij-35 (0.01%), glycerol (5%) and 1 mg/ml bovine serum albumin) (2.5 μL) is added to the wells to initiate the reactions.
The reaction plates are incubated at 30° C. for 40 min. The reaction is terminated by the addition of a 3% phosphoric acid solution (5 μL). The reaction product (10 μL) is spotted onto a P30 filtermat and is washed for 5 minutes in phosphoric acid (75 mM). The wash sequence is repeated two more times and is followed with one final wash in methanol. The plates are then dried, sealed and read on the TopCount scintillation counter after 30 μL scintillation fluid is added.
The 1% percent inhibition value for Compound 64 was derived according to the procedure described in Example 5 at a test concentration of 1 μM.

The structures appear in SMILES notation.

T1 sequence (P07948 whole entry): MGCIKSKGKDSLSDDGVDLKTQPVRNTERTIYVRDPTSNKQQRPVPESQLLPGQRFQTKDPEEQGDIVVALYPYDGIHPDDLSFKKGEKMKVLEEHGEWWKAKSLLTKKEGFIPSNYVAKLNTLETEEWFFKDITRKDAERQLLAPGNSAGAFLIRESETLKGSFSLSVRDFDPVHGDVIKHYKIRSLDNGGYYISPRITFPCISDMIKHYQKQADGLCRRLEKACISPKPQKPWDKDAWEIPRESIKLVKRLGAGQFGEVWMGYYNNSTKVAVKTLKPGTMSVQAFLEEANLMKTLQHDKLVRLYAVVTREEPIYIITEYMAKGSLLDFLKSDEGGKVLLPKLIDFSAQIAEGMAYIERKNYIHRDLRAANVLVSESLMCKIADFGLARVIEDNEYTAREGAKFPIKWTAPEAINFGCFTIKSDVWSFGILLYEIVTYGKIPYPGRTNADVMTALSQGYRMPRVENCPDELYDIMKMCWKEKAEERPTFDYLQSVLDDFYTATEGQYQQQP
T2 sequence (P00533 667-1210 limits assumed): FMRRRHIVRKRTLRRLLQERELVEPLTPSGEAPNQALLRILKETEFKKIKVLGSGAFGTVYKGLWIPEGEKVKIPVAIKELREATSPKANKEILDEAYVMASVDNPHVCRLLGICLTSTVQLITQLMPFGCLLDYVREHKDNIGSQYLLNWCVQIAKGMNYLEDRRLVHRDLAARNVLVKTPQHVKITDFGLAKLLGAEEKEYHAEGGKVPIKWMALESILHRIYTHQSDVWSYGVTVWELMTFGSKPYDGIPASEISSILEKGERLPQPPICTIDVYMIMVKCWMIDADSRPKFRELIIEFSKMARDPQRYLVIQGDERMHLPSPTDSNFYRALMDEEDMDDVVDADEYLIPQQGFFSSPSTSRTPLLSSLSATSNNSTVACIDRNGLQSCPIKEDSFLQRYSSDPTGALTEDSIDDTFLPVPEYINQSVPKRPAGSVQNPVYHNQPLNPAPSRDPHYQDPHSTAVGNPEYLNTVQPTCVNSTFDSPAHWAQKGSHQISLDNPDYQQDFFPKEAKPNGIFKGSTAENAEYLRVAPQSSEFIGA
T4 sequence (P00519 whole entry): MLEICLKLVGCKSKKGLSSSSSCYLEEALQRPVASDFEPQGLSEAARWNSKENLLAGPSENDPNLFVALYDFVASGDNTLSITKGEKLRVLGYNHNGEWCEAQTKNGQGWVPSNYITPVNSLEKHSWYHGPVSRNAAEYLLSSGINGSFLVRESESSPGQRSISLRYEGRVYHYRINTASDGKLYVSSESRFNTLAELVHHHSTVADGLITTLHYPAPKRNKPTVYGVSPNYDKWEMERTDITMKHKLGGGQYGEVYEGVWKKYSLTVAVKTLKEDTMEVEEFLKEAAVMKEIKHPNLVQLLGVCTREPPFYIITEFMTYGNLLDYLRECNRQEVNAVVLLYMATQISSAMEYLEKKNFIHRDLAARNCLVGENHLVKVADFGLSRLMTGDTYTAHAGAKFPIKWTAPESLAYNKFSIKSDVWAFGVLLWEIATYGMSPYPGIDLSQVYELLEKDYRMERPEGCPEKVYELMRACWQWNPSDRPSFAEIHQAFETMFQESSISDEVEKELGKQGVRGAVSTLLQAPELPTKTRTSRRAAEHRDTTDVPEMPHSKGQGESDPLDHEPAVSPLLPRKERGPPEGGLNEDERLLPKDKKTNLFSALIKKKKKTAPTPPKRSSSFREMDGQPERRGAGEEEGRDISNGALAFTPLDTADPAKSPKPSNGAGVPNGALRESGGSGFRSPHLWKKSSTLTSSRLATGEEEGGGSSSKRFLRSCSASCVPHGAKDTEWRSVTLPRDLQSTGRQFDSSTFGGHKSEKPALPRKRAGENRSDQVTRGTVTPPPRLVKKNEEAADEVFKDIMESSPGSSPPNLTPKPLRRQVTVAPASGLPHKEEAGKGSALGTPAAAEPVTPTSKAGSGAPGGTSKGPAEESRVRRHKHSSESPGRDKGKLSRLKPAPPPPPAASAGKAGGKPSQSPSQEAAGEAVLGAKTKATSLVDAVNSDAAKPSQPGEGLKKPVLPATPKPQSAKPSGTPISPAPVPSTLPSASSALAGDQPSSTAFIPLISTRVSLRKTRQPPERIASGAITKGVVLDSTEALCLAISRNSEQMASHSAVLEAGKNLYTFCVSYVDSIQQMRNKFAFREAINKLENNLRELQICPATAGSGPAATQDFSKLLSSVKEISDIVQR
T3 sequence (P12931 whole entry): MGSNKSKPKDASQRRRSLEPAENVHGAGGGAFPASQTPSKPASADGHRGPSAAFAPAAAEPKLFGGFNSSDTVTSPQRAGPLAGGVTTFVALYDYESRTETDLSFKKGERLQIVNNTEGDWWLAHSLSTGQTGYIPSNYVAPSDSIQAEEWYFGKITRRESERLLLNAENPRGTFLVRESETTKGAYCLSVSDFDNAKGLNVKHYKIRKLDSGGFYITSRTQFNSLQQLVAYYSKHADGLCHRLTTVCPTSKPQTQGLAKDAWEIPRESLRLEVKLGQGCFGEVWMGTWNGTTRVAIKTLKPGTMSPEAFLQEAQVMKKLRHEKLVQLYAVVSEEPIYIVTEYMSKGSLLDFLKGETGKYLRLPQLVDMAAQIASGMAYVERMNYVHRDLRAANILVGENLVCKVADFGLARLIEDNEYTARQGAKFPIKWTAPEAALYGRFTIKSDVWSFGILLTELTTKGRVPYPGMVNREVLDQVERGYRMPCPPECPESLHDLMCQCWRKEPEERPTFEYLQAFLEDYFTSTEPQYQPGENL

As for `C#Cc1cccc(Nc2ncnc3nc(Nc4ccc(CNC[C@H]5CCCO5)cc4)sc23)c1` [Cpd 64, N^7-(3-ethynyl-phenyl)-N^2-(4-{[(2R)-(tetrahydro-furan-2-ylmethyl)-amino]-methyl}-phenyl)-thiazolo[4,5-d]pyrimidine-2,7-diamine], the inhibition at 1 µM in experiment [1] is 17%; in experiment [3], 21%; in experiment [4] it was 1%. Moreover, the midpoint of inhibition in experiment [2], the IC50, lay at 3.96 nM.
